# Values joined by “and” are separate entries in the source; they are usually repeats but may differ in a detail not shown here. Equal entries are not always repeated. Results filed as inconclusive are left out.
# Test system: mice, P1798 lymphosarcoma sc, survival or tumor weight T/C
# Assay: NCI In Vivo Anticancer Drug Screen. Data for tumor model P1798 Lymphosarcoma (subcutaneous) in unknown mice
# Method: The antitumor activity of compounds was measured in mice bearing transplantable tumors. Survival or tumor size were measured and the results are expressed as the measurement made in the treated group (T) divided by the measurement made in the vehicle treated control group (C). The tumor model used in this assay is P1798 Lymphosarcoma (subcutaneous) in unknown mice
# [1] = endpoint: mean tumor weight, dose: 25.0 mg/kg/injection, schedule: Q01DX010 (ip), vehicle: carboxymethylcellulose (CMC), higher = larger tumour
# [2] = endpoint: mean tumor weight, dose: 50.0 mg/kg/injection, schedule: Q01DX010 (ip), vehicle: carboxymethylcellulose (CMC), higher = larger tumour
# [3] = endpoint: mean tumor weight, dose: 0.12 mg/kg/injection, schedule: Q01DX010 (ip), vehicle: saline, higher = larger tumour
# [4] = endpoint: mean tumor weight, dose: 0.25 mg/kg/injection, schedule: Q01DX010 (ip), vehicle: saline, higher = larger tumour
# [5] = endpoint: mean tumor weight, dose: 25.0 mg/kg/injection, schedule: Q01DX010 (ip), vehicle: saline, higher = larger tumour
smiles,measurement,setting,value
CN(Cc1cnc2nc(N)nc(N)c2n1)c1ccc(C(=O)N[C@@H](CCC(=O)O)C(=O)O)cc1,T/C,"endpoint: mean tumor weight, dose: 0.15 mg/kg/injection, schedule: Q01DX010 (ip), vehicle: other, higher = larger tumour",79 % of control and 101 % of control
same,T/C,"endpoint: mean tumor weight, dose: 0.16 mg/kg/injection, schedule: Q01DX010 (ip), vehicle: other, higher = larger tumour",118 % of control
same,T/C,"endpoint: mean tumor weight, dose: 0.39 mg/kg/injection, schedule: Q01DX010 (sc), vehicle: other, higher = larger tumour",28 % of control
same,T/C,"endpoint: mean tumor weight, dose: 0.5 mg/kg/injection, schedule: Q01DX011 (ip), vehicle: carboxymethylcellulose (CMC), higher = larger tumour",33 % of control
same,T/C,"endpoint: mean tumor weight, dose: 0.65 mg/kg/injection, schedule: Q01DX010 (sc), vehicle: other, higher = larger tumour",50 % of control
same,T/C,"endpoint: mean tumor weight, dose: 1.0 mg/kg/injection, schedule: Q01DX011 (ip), vehicle: carboxymethylcellulose (CMC), higher = larger tumour",1 % of control
same,T/C,"endpoint: mean tumor weight, dose: 1.08 mg/kg/injection, schedule: Q01DX010 (sc), vehicle: other, higher = larger tumour",18 % of control
same,T/C,"endpoint: mean tumor weight, dose: 11.0 mg/kg/injection, schedule: Q01DX001 (ip), vehicle: carboxymethylcellulose (CMC), higher = larger tumour",78 % of control
same,T/C,"endpoint: mean tumor weight, dose: 22.0 mg/kg/injection, schedule: Q01DX001 (ip), vehicle: carboxymethylcellulose (CMC), higher = larger tumour",74 % of control
same,T/C,"endpoint: mean tumor weight, dose: 43.0 mg/kg/injection, schedule: Q01DX001 (ip), vehicle: carboxymethylcellulose (CMC), higher = larger tumour",44 % of control
same,T/C,"endpoint: median survival time, dose: 0.31 mg/kg/injection, schedule: Q01DX010 (ip), vehicle: sodium bicarbonate, higher = longer survival",101 % of control
same,T/C,"endpoint: median survival time, dose: 0.62 mg/kg/injection, schedule: Q01DX010 (ip), vehicle: sodium bicarbonate, higher = longer survival",103 % of control
same,T/C,"endpoint: median survival time, dose: 0.63 mg/kg/injection, schedule: Q01DX010 (ip), vehicle: sodium bicarbonate, higher = longer survival",103 % of control
same,T/C,"endpoint: median survival time, dose: 1.25 mg/kg/injection, schedule: Q01DX010 (ip), vehicle: sodium bicarbonate, higher = longer survival",113 % of control
same,T/C,"endpoint: median survival time, dose: 2.5 mg/kg/injection, schedule: Q01DX010 (ip), vehicle: sodium bicarbonate, higher = longer survival",33 % of control
same,T/C,"endpoint: median survival time, dose: 4.0 mg/kg/injection, schedule: Q04DX007 (ip), vehicle: sodium bicarbonate, higher = longer survival",76 % of control
same,T/C,"endpoint: median survival time, dose: 5.0 mg/kg/injection, schedule: Q01DX010 (ip), vehicle: sodium bicarbonate, higher = longer survival",37 % of control
same,T/C,"endpoint: median survival time, dose: 8.0 mg/kg/injection, schedule: Q04DX007 (ip), vehicle: sodium bicarbonate, higher = longer survival",76 % of control
same,T/C,"endpoint: median survival time, dose: 16.0 mg/kg/injection, schedule: Q04DX007 (ip), vehicle: saline, higher = longer survival",161 % of control
same,T/C,"endpoint: median survival time, dose: 16.0 mg/kg/injection, schedule: Q04DX007 (ip), vehicle: sodium bicarbonate, higher = longer survival",74 % of control
same,T/C,"endpoint: median survival time, dose: 32.0 mg/kg/injection, schedule: Q04DX007 (ip), vehicle: saline, higher = longer survival",170 % of control
same,T/C,"endpoint: median survival time, dose: 32.0 mg/kg/injection, schedule: Q04DX007 (ip), vehicle: sodium bicarbonate, higher = longer survival",29 % of control
same,T/C,"endpoint: median survival time, dose: 64.0 mg/kg/injection, schedule: Q04DX007 (ip), vehicle: sodium bicarbonate, higher = longer survival",25 % of control
Nc1ncnc2[nH]ncc12,T/C,"endpoint: mean tumor weight, dose: 6.25 mg/kg/injection, schedule: Q01DX010 (ip), vehicle: carboxymethylcellulose (CMC), higher = larger tumour",73 % of control
same,T/C,"endpoint: mean tumor weight, dose: 12.5 mg/kg/injection, schedule: Q01DX010 (ip), vehicle: carboxymethylcellulose (CMC), higher = larger tumour",64 % of control
COC1=C(N)C(=O)c2nc(-c3nc(C(=O)O)c(C)c(-c4ccc(OC)c(OC)c4O)c3N)ccc2C1=O,T/C,"endpoint: mean tumor weight, dose: 0.05 mg/kg/injection, schedule: Q01DX010 (ip), vehicle: other, higher = larger tumour",65 % of control
same,T/C,"endpoint: mean tumor weight, dose: 0.1 mg/kg/injection, schedule: Q01DX010 (ip), vehicle: other, higher = larger tumour",39 % of control
O=c1cnn(C2OC(CO)C(O)C2O)c(=O)[nH]1 (centres undefined),T/C,"endpoint: mean tumor weight, dose: 125.0 mg/kg/injection, schedule: Q01DX010 (ip), vehicle: water, higher = larger tumour",93 % of control
same,T/C,"endpoint: mean tumor weight, dose: 250.0 mg/kg/injection, schedule: Q01DX010 (ip), vehicle: water, higher = larger tumour",67 % of control
same,T/C,"endpoint: mean tumor weight, dose: 500.0 mg/kg/injection, schedule: Q01DX010 (ip), vehicle: water, higher = larger tumour",77 % of control
same,T/C,"endpoint: mean tumor weight, dose: 1000.0 mg/kg/injection, schedule: Q01DX010 (ip), vehicle: water, higher = larger tumour",75 % of control
CS(=O)(=O)OCCCl,T/C,[1],89 % of control
same,T/C,[2],88 % of control
Cn1cnc([N+](=O)[O-])c1Sc1nc(N)nc2nc[nH]c12,T/C,"endpoint: mean tumor weight, dose: 2.5 mg/kg/injection, schedule: Q01DX010 (ip), vehicle: saline, higher = larger tumour",53 % of control
same,T/C,"endpoint: mean tumor weight, dose: 5.0 mg/kg/injection, schedule: Q01DX010 (ip), vehicle: saline, higher = larger tumour",62 % of control
same,T/C,"endpoint: mean tumor weight, dose: 10.0 mg/kg/injection, schedule: Q01DX010 (ip), vehicle: saline, higher = larger tumour",37 % of control
C1CN1c1nc(N2CC2)nc(N2CC2)n1,T/C,"endpoint: mean tumor weight, dose: 0.06 mg/kg/injection, schedule: Q01DX010 (ip), vehicle: saline, higher = larger tumour",77 % of control and 78 % of control
same,T/C,[3],78 % of control and 86 % of control
same,T/C,[4],44 % of control and 54 % of control
Clc1ccc(C(c2ccccc2Cl)C(Cl)Cl)cc1 (centres undefined),T/C,"endpoint: mean tumor weight, dose: 62.5 mg/kg/injection, schedule: Q01DX010 (sc), vehicle: steriod suspending solution, higher = larger tumour",85 % of control
same,T/C,"endpoint: mean tumor weight, dose: 125.0 mg/kg/injection, schedule: Q01DX010 (sc), vehicle: steriod suspending solution, higher = larger tumour",73 % of control
same,T/C,"endpoint: mean tumor weight, dose: 250.0 mg/kg/injection, schedule: Q01DX010 (sc), vehicle: steriod suspending solution, higher = larger tumour",105 % of control
same,T/C,"endpoint: mean tumor weight, dose: 500.0 mg/kg/injection, schedule: Q01DX010 (sc), vehicle: steriod suspending solution, higher = larger tumour",103 % of control
CC(=O)Nc1ccc2nc3ccc(NC(C)=O)cc3[n+](-c3ccccc3)c2c1,T/C,[5],56 % of control
same,T/C,"endpoint: mean tumor weight, dose: 50.0 mg/kg/injection, schedule: Q01DX010 (ip), vehicle: saline, higher = larger tumour",21 % of control
same,T/C,"endpoint: mean tumor weight, dose: 100.0 mg/kg/injection, schedule: Q01DX010 (ip), vehicle: saline, higher = larger tumour",12 % of control
same,T/C,"endpoint: mean tumor weight, dose: 200.0 mg/kg/injection, schedule: Q01DX010 (ip), vehicle: saline, higher = larger tumour",3 % of control
CC(C)(c1ccccc1)c1ccc(O)cc1,T/C,[2],91 % of control
same,T/C,"endpoint: mean tumor weight, dose: 100.0 mg/kg/injection, schedule: Q01DX010 (ip), vehicle: carboxymethylcellulose (CMC), higher = larger tumour",109 % of control
same,T/C,"endpoint: mean tumor weight, dose: 200.0 mg/kg/injection, schedule: Q01DX010 (ip), vehicle: carboxymethylcellulose (CMC), higher = larger tumour",108 % of control
O=C1CCC(N2C(=O)c3ccccc3C2=O)C(=O)N1 (centres undefined),T/C,"endpoint: mean tumor weight, dose: 18.75 mg/kg/injection, schedule: Q01DX010 (ip), vehicle: carboxymethylcellulose (CMC), higher = larger tumour",122 % of control
same,T/C,"endpoint: mean tumor weight, dose: 37.5 mg/kg/injection, schedule: Q01DX010 (ip), vehicle: carboxymethylcellulose (CMC), higher = larger tumour",68 % of control
same,T/C,"endpoint: mean tumor weight, dose: 75.0 mg/kg/injection, schedule: Q01DX010 (ip), vehicle: carboxymethylcellulose (CMC), higher = larger tumour",92 % of control
same,T/C,"endpoint: mean tumor weight, dose: 150.0 mg/kg/injection, schedule: Q01DX010 (ip), vehicle: carboxymethylcellulose (CMC), higher = larger tumour",83 % of control
Nc1nc(F)nc2c1ncn2C1OC(CO)C(O)C1O (centres undefined),T/C,"endpoint: mean tumor weight, dose: 0.75 mg/kg/injection, schedule: Q01DX011 (ip), vehicle: saline, higher = larger tumour",73 % of control
same,T/C,"endpoint: mean tumor weight, dose: 1.5 mg/kg/injection, schedule: Q01DX011 (ip), vehicle: saline, higher = larger tumour",30 % of control
O=c1[nH]c(=O)n(C2CC(O)C(CO)O2)cc1F (centres undefined),T/C,[1],42 % of control
same,T/C,[2],30 % of control
COc1cc2c(c(OC)c1OC)-c1ccc(OC)c(=O)cc1[C@@H](NC(C)=O)CC2,T/C,[3],50 % of control
same,T/C,[4],59 % of control
same,T/C,"endpoint: mean tumor weight, dose: 0.5 mg/kg/injection, schedule: Q01DX010 (ip), vehicle: saline, higher = larger tumour",5 % of control
CCOC(N)=O,T/C,"endpoint: mean tumor weight, dose: 250.0 mg/kg/injection, schedule: Q01DX010 (ip), vehicle: saline, higher = larger tumour",70 % of control and 76 % of control
CN(N=O)C(N)=O,T/C,"endpoint: mean tumor weight, dose: 12.5 mg/kg/injection, schedule: Q01DX010 (ip), vehicle: saline, higher = larger tumour",10 % of control
same,T/C,[5],13 % of control
Nc1nc(=S)c2ncn(C3OC(CO)C(O)C3O)c2[nH]1 (centres undefined),T/C,"endpoint: mean tumor weight, dose: 0.31 mg/kg/injection, schedule: Q01DX010 (ip), vehicle: carboxymethylcellulose (CMC), higher = larger tumour",79 % of control
same,T/C,"endpoint: mean tumor weight, dose: 0.63 mg/kg/injection, schedule: Q01DX010 (ip), vehicle: carboxymethylcellulose (CMC), higher = larger tumour",71 % of control
same,T/C,"endpoint: mean tumor weight, dose: 1.25 mg/kg/injection, schedule: Q01DX010 (ip), vehicle: carboxymethylcellulose (CMC), higher = larger tumour",50 % of control
same,T/C,"endpoint: mean tumor weight, dose: 2.0 mg/kg/injection, schedule: Q01DX010 (ip), vehicle: saline, higher = larger tumour",55 % of control
same,T/C,"endpoint: mean tumor weight, dose: 2.5 mg/kg/injection, schedule: Q01DX010 (ip), vehicle: carboxymethylcellulose (CMC), higher = larger tumour",31 % of control
same,T/C,"endpoint: mean tumor weight, dose: 4.0 mg/kg/injection, schedule: Q01DX010 (ip), vehicle: saline, higher = larger tumour",63 % of control
CC[C@]1(O)C[C@H]2CN(CCc3c([nH]c4ccccc34)[C@@](C(=O)OC)(c3cc4c(cc3OC)N(C=O)[C@H]3[C@@](O)(C(=O)OC)[C@H](OC(C)=O)[C@]5(CC)C=CCN6CC[C@]43[C@@H]65)C2)C1,T/C,"endpoint: mean tumor weight, dose: 0.01 mg/kg/injection, schedule: Q01DX010 (ip), vehicle: water, higher = larger tumour",105 % of control
same,T/C,"endpoint: mean tumor weight, dose: 0.03 mg/kg/injection, schedule: Q01DX010 (ip), vehicle: water, higher = larger tumour",105 % of control
same,T/C,"endpoint: mean tumor weight, dose: 0.1 mg/kg/injection, schedule: Q01DX001 (ip), vehicle: saline, higher = larger tumour",120 % of control
same,T/C,"endpoint: mean tumor weight, dose: 0.3 mg/kg/injection, schedule: Q01DX001 (ip), vehicle: saline, higher = larger tumour",45 % of control
same,T/C,"endpoint: mean tumor weight, dose: 0.5 mg/kg/injection, schedule: Q01DX001 (ip), vehicle: saline, higher = larger tumour",40 % of control
same,T/C,"endpoint: mean tumor weight, dose: 0.68 mg/kg/injection, schedule: Q01DX001 (ip), vehicle: saline, higher = larger tumour",10 % of control
same,T/C,"endpoint: mean tumor weight, dose: 0.7 mg/kg/injection, schedule: Q01DX001 (ip), vehicle: saline, higher = larger tumour",36 % of control
same,T/C,"endpoint: mean tumor weight, dose: 1.35 mg/kg/injection, schedule: Q01DX001 (ip), vehicle: saline, higher = larger tumour",3 % of control
same,T/C,"endpoint: mean tumor weight, dose: 125.0 micrograms/kg/injection, schedule: Q01DX010 (ip), vehicle: water, higher = larger tumour",16 % of control

# From PubChem BioAssay AID290 (DTP/NCI, 2004)
